In PMC8443589, “Modelling human liver fibrosis in the context of non-alcoholic steatohepatitis using a microphysiological system” (Communications Biology, 2021):

System: liver MPS NASH model (PHH, KC and HSC co-cultures, high fat)
Assay: Secreted cytokine/biomarker profile (Luminex, ELISA) of liver MPS NASH model dosed with OCA or ELF
Type: cell-based, human
Experimental: Fig. 3 Obeticholic acid and Elafibranor both modulate inflammatory and fibrosis phenotype in liver MPS NASH model and phenotype can additionally be reversed with dietary changes. PHH, KC and HSC co-cultures were cultured in the MPS platform under high fat conditions and dosed with varying concentrations of Obeticholic acid (OCA) and Elafibranor (ELF) QD or vehicle control (control) for 10 days, following an initial 4-day pre-culture phase. a The secreted cytokine profile from liver microtissues was compared by Luminex to determine the effects of each compound on the inflammatory profile of the liver with samples analysed at day 8 and 14 of the culture. Data were normalised by Z-transformation to allow comparison of all analytes and presented as a heatmap. b The expression of fibrosis-associated genes was analysed in total RNA from control, OCA and ELF treated liver microtissues (highest concentration for each compound) using Human Fibrosis RT2 Profiler PCR Arrays. Gene expression changes are expressed as a fold change over control. c Liver microtissues were stained for collagen-type I, α-SMA, nuclei (DAPI - blue), phalloidin (green) and imaged by confocal microscopy. Representative images are shown and scale bars 200 µm. d Staining of microtissue was quantified by measuring total fluorescence intensity throughout individual microtissues, each data point represents an average of all the microtissues imaged within an MPS scaffold (min 8, max 20 microtissues). e PHH, KC and HSC co-cultures were cultured in the MPS platform under high fat or lean conditions for 30 days. Cultures either remained in the same type of media throughout or were switched at day 15 from fat media to lean media (Fat -> Lean). Cell culture medium samples were analysed for the presence of IL-6, f MCP-1, g TIMP-1, which were measured by ELISA. h Microtissues were stained with Oil-Red O to determine fat loading during culture period, total stain was quantified by absorbance at 510 nm. All datapoints shown, either as box-whisker plots highlighting mean and min-max or with error bars highlighting means ± SD. All data from a minimum of three independent cultures; statistical comparisons made to control samples unless other comparison shown.
Soluble biomarkers in cell culture medium from the MPS were analysed by enzyme-linked immunosorbent assay (ELISA); IL-6 was measured by Human IL-6 DuoSet ELISA (R&D Systems); MCP-1 was measured by Human CCL2/MCP-1 DuoSet ELISA (R&D Systems); pro-collagen 1 was measured by Human Pro-Collagen I α1 DuoSet (R&D Systems); TIMP-1 was measured by Human TIMP-1 Quantikine ELISA Kit (R&D Systems); Fibronectin was measured by Human Fibronectin DuoSet ELISA (R&D Systems); YKL-40 was measured by Human Chitinase 3-like 1 Quantikine ELISA Kit (R&D Systems); Albumin secretion was measured by Human Albumin AssayMax™ ELISA kit (Assay Pro, St. Charles, MO). For all assays, the manufacturer’s protocol was followed.
Cytokine profiles in cell culture medium samples were also analysed by Luminex array for determination of 38 analytes in total, consisting of cytokines, chemokines, and growth factors using the MILLIPLEX MAP Human Cytokine/Chemokine Magnetic Bead Panel - Premixed 38 Plex (Merck Millipore, USA).
Liver microtissues were cultured for 4 days in HEP-FAT medium, before dosing with obeticholic acid or elafibranor. Both compounds were dissolved in DMSO, diluted in cell culture medium (final DMSO concentration ≤1%) and added to microtissues during a full medium change every two days and in addition on the intervening days compounds were spiked into the media to increase drug concentration back to desired concentrations. Cultures were maintained in the presence of the compound, for a total of 10 days in the presence or absence of TGFβ.

With `CSc1ccc(C(=O)/C=C/c2cc(C)c(OC(C)(C)C(=O)O)c(C)c2)cc1` [Elafibranor] the “inflammatory cytokines, including CXCL1, IL1-Rα, IL-6 and MCP-1” value (10 days of compound treatment) was “concentration-dependent decrease”, the “CXCL1 fold change in production compared to control” value (“CXCL1 fold change in production” for short) (ELF 1.3 µM QD, D8) was 0.8888 and the “CXCL10 fold change in production compared to control” value (“CXCL10 fold change in production” for short) (ELF 1.3 µM QD, D8) was 0.9847. The “FN1 fold change in production compared to control” value (from here on “FN1 fold change in production”) (ELF 1.3 µM QD, D8) was 0.9865, the “IL-1RA fold change in production compared to control” value (shortened to “IL-1RA fold change in production”) (ELF 1.3 µM QD, D8) was 0.559 and the “IL-4 fold change in production compared to control” value (shortened to “IL-4 fold change in production”) (ELF 1.3 µM QD, D8) was 1.264. The “IL-6 fold change in production compared to control” value (“IL-6 fold change in production” for short) (ELF 1.3 µM QD, D8) was 0.3707, the “IL-8 fold change in production compared to control” value (“IL-8 fold change in production” below) (ELF 1.3 µM QD, D8) was 1.017 and the “MCP-1 fold change in production compared to control” value (shortened to “MCP-1 fold change in production”) (ELF 1.3 µM QD, D8) was 1.109. The “MIP-1a fold change in production compared to control” value (from here on “MIP-1a fold change in production”) (ELF 1.3 µM QD, D8) was 0.8137, the “MIP-1b fold change in production compared to control” value (from here on “MIP-1b fold change in production”) (ELF 1.3 µM QD, D8) was 0.885 and the “TIMP-1 fold change in production compared to control” value (from here on “TIMP-1 fold change in production”) (ELF 1.3 µM QD, D8) was 0.8634. For the same compound, the “VEGF fold change in production compared to control” value (from here on “VEGF fold change in production”) (ELF 1.3 µM QD, D8) was 0.3678, the “CXCL1 fold change in production” value (ELF 1.3 µM QD, D14) was 0.5791 and the “CXCL10 fold change in production” value (ELF 1.3 µM QD, D14) was 0.6755. The “FN1 fold change in production” value (ELF 1.3 µM QD, D14) was 1.109, the “IL-1RA fold change in production” value (ELF 1.3 µM QD, D14) was 0.3482 and the “IL-4 fold change in production” value (ELF 1.3 µM QD, D14) was 0.8813. The “IL-6 fold change in production” value (ELF 1.3 µM QD, D14) was 0.3647, the “IL-8 fold change in production” value (ELF 1.3 µM QD, D14) was 0.625 and the “MCP-1 fold change in production” value (ELF 1.3 µM QD, D14) was 0.9408. The “MIP-1a fold change in production” value (ELF 1.3 µM QD, D14) was 0.8725, the “MIP-1b fold change in production” value (ELF 1.3 µM QD, D14) was 1.297 and the “TIMP-1 fold change in production” value (ELF 1.3 µM QD, D14) was 0.9244. For the same compound, the “VEGF fold change in production” value (ELF 1.3 µM QD, D14) was 0.5658, the “CXCL1 fold change in production” value (ELF 13 µM QD, D8) was 0.7659 and the “CXCL10 fold change in production” value (ELF 13 µM QD, D8) was 0.8228. The “FN1 fold change in production” value (ELF 13 µM QD, D8) was 0.9502, the “IL-1RA fold change in production” value (ELF 13 µM QD, D8) was 0.4867 and the “IL-4 fold change in production” value (ELF 13 µM QD, D8) was 1.05. For the same compound, the “IL-6 fold change in production” value (ELF 13 µM QD, D8) was 0.3808, the “IL-8 fold change in production” value (ELF 13 µM QD, D8) was 0.9446 and the “MCP-1 fold change in production” value (ELF 13 µM QD, D8) was 0.8534. The “MIP-1a fold change in production” value (ELF 13 µM QD, D8) was 0.3878, the “MIP-1b fold change in production” value (ELF 13 µM QD, D8) was 0.4913 and the “TIMP-1 fold change in production” value (ELF 13 µM QD, D8) was 0.6879. For the same compound, the “VEGF fold change in production” value (ELF 13 µM QD, D8) was 0.494, the “CXCL1 fold change in production” value (ELF 13 µM QD, D14) was 0.5325 and the “CXCL10 fold change in production” value (ELF 13 µM QD, D14) was 0.6314. The “FN1 fold change in production” value (ELF 13 µM QD, D14) was 0.9442, the “IL-1RA fold change in production” value (ELF 13 µM QD, D14) was 0.3167 and the “IL-4 fold change in production” value (ELF 13 µM QD, D14) was 1.0405. The “IL-6 fold change in production” value (ELF 13 µM QD, D14) was 0.4596, the “IL-8 fold change in production” value (ELF 13 µM QD, D14) was 0.6408 and the “MCP-1 fold change in production” value (ELF 13 µM QD, D14) was 0.5. For the same compound, the “MIP-1a fold change in production” value (ELF 13 µM QD, D14) was 0.4932, the “MIP-1b fold change in production” value (ELF 13 µM QD, D14) was 0.6533 and the “TIMP-1 fold change in production” value (ELF 13 µM QD, D14) was 0.6384. The “VEGF fold change in production” value (ELF 13 µM QD, D14) was 1.282, the “CXCL1 fold change in production” value (ELF 65 µM QD, D8) was 0.4476 and the “CXCL10 fold change in production” value (ELF 65 µM QD, D8) was 0.3212. For the same compound, the “FN1 fold change in production” value (ELF 65 µM QD, D8) was 0.8989, the “IL-1RA fold change in production” value (ELF 65 µM QD, D8) was 0.1707 and the “IL-4 fold change in production” value (ELF 65 µM QD, D8) was 0.5412. The “IL-6 fold change in production” value (ELF 65 µM QD, D8) was 0.2914, the “IL-8 fold change in production” value (ELF 65 µM QD, D8) was 0.5667 and the “MCP-1 fold change in production” value (ELF 65 µM QD, D8) was 0.402. For the same compound, the “MIP-1a fold change in production” value (ELF 65 µM QD, D8) was 0.2899, the “MIP-1b fold change in production” value (ELF 65 µM QD, D8) was 0.5458 and the “TIMP-1 fold change in production” value (ELF 65 µM QD, D8) was 0.784. The “VEGF fold change in production” value (ELF 65 µM QD, D8) was 0.6076, the “CXCL1 fold change in production” value (ELF 65 µM QD, D14) was 0.3166 and the “CXCL10 fold change in production” value (ELF 65 µM QD, D14) was 0.3403. The “FN1 fold change in production” value (ELF 65 µM QD, D14) was 0.7375, the “IL-1RA fold change in production” value (ELF 65 µM QD, D14) was 0.07012 and the “IL-4 fold change in production” value (ELF 65 µM QD, D14) was 0.3173. The “IL-6 fold change in production” value (ELF 65 µM QD, D14) was 0.09996, the “IL-8 fold change in production” value (ELF 65 µM QD, D14) was 0.4914 and the “MCP-1 fold change in production” value (ELF 65 µM QD, D14) was 0.1355. The “MIP-1a fold change in production” value (ELF 65 µM QD, D14) was 0.3265, the “MIP-1b fold change in production” value (ELF 65 µM QD, D14) was 0.1355 and the “TIMP-1 fold change in production” value (ELF 65 µM QD, D14) was 0.5288. The “VEGF fold change in production” value (ELF 65 µM QD, D14) was 1.5699.
